Data on three compounds can be found in US20050165064A1, “Novel thiol derivative, process for producing the same and use thereof” (priority 2003, published 2005).

The target in this test is Recombinant Human MMP-13 (Homo sapiens, UniProt P45452). The experiment in a line: MMP-13 inhibitory activity, fluorescent synthetic substrate method. As to conditions: 8 nM APMA-activated enzyme, 10 μM substrate, 37° C., 1 hour. It counts as biochemical. As to the method: The MMP-13 inhibitory activity was measured by a method using a fluorescent synthetic substrate. To a buffer solution for measurement (100 mM Tris-HCl, pH 7.4, 100 mM NaCl, 10 mM CaCl2) containing Recombinant Human MMP-13 (manufactured by Takeda Pharmaceuticals, Inc.) activated by APMA (1 mM) in a concentration of 8 nM, the compound dissolved in DMSO was added in a predetermined concentration. Subsequently, a fluorescent synthetic substrate (7-methoxycoumarin-4-yl)acetyl-Pro-Leu-Gly-Leu-(3-[2,4-dinitrophenyl]-L-2,3-diaminopropionyl)-Ala-Arg-NH2 was added thereto in a concentration of 10 μM to initiate the reaction. After incubation at 37° C. for 1 hour, a 500 mM acetate buffer (pH 3.0) was added to stop the reaction. The increase in the fluorescence intensity due to substrate decomposition was measured employing a CORONA MTP-32 plate reader under the condition of Ex/Em=340/400. The rate of inhibition of the enzymatic inhibitory activity was determined from the following equation: Rate of Inhibition (%)=100−(X−C)/(T−C)×100
T: Fluorescence intensity of the control with addition of enzyme and without addition of the compound
C: Fluorescence intensity of the control without addition of enzyme and without addition of the compound
X: Fluorescence intensity with addition of enzyme and with addition of the compound

Where a name gives a salt, the structure may show the parent alone.

The term inhibition denotes the drop in the measured response relative to a control, in per cent. Regarding `O=C1C[C@@H](S)CN1Cc1ccc(Oc2ccc(F)cc2)nc1` [Example 2, (4R)-1-{[6-(4-fluorophenoxy)pyridin-3-yl]methyl}-4-mercaptopyrrolidin-2-one hydrochloride], the inhibition at 0.003 µM (compound 3 nM, read-out: rate of inhibition for MMP-13 activity) was found to be 63%.

`CCc1ccc(Oc2ccc(CN3C[C@H](S)CC3=O)cn2)cc1` [Example 12, (4R)-1-{[6-(4-ethylphenoxy)pyridin-3-yl]methyl}-4-mercaptopyrrolidin-2-one]: the inhibition at 0.0015 µM (compound 1.5 nM, read-out: rate of inhibition for MMP-13 activity) turned out to be 50%.

Consider `CS(=O)(=O)Nc1ccc(Oc2ccc(CN3C[C@H](S)CC3=O)cn2)cc1` [Example 15], for which, under “compound 1.5 nM”, the “rate of inhibition for MMP-13 activity” value was 67%.
